This assay deals with T1, CD11b (Homo sapiens, UniProt P11215).
T1 construct: Human CD14+ monocytes were isolated from the PBMCs; endogenous in cells; host or cells: primary human CD14+ monocytes from whole-blood PBMCs
The assay can be described thus: Cell adhesion assay on ICAM-1 coated substrates. Type of assay: cell-based. The following applies: LA1 20 μM. As to the method:
Cell Adhesion Assay— PBMCs were extracted from human whole blood using the vendor instructions for Sep Mate-50 tubes (#15450, Stem Cell). Human CD14+ monocytes were isolated from the PBMCs using the vendor instructions for the EasySep™ Human Monocyte Isolation Kit (Catalog #19359, Stem Cell). Briefly, 384-well plates (#3700, Corning) were coated with recombinant human ICAM1 (750 ng/mL, #720-IC, R&D Systems), or M1/70 (10 ug/mL, #101202, Biolegend) or IB4 (10 μg/mL, #167-020, Ancell) overnight at 4° C. Wells were blocked with 1% milk dissolved in TBS for 1 hr at room temperature. All wells received Ca^2+/Mg^2+ ions (1 mM each physiological concentration, baseline control) except for the positive control wells that received 1 mM Mn^2+ ions. A stock solution of LA1 agonist was prepared by dissolving the compound in DMSO at a concentration of 2 mM and final dilution of LA1 in wells was 20 μM. The final concentration of DMSO in all wells was 1%. 45,000 human monocytes were seeded in each well. Some wells received human monocytes cells that were pre-blocked with anti-human CD11b (M1/70) for 15 min at 4° C. The plates were incubated at 37° C. for 30 min followed by 30 min of inversion at room temperature to remove non-adherent cells. Cells were fixed, stained with DAPI and counted using the Opera High Content Screening System (Perkin Elmer). Assays were performed in six replicate wells.

As to `O=C(O)c1ccc(-c2ccc(/C=C3\SC(=S)N(Cc4ccccc4)C3=O)o2)cc1` [LA1, leukadherin 1], the “myeloid cell adhesion to ICAM-1 coated substrates” value is given as “stimulated myeloid cell adhesion to ICAM-1 coated substrates”.

These data come from patent US11679100B2, “Methods of enhancing immunity” (The Regents of the University of California, priority 2018, dated 2023).
